Columns and labels:
[1] = Determination of particle size and polydispersity index (PDI) of lipid nanoparticles by dynamic light scattering; assay type: physicochemical; settings: LNP formulation of named cationic lipid/DSPC/cholesterol/DMG-PEG2000 49:10:39.5:1.5; for Particle size (nm): 90° scattering angle, 25° C
Protocol: The cationic lipids listed in Table 1 were dissolved in ethanol with DSPC (AVT (Shanghai) Pharmaceutical Technology Co., Ltd.), cholesterol (AVT (Shanghai) Pharmaceutical Technology Co., Ltd.) and DMG-PEG2000 according to a molar ratio of 49:10:39.5:1.5, respectively, to prepare lipid solution in ethanol. The lipid solution in ethanol was quickly added to citrate buffer (pH=4 to 5) by ethanol injection method, and vortexed for 30 s for later use. eGFP-mRNA (from Shanghai Biohub International Trade Co., Ltd) or Fluc-mRNA (from Shanghai Biohub International Trade Co., Ltd) was diluted in citrate buffer (pH=4 to 5) to give an aqueous mRNA solution. A certain volume of liposome solution and mRNA aqueous solution were used to prepare liposomes at a weight ratio of total lipids to mRNA of 15:1. The mixtures were sonicated at 25° C. for 15 min (with an ultrasonic frequency of 40 kHz and an ultrasonic power of 800 W). The resulting liposomes were diluted to 10 times volume with PBS, and then ultrafiltered with a 300 KDa ultrafiltration tube to remove ethanol. Then the volume was fixed to a certain volume with PBS to give an LNP formulation encapsulating eGFP-mRNA or Fluc-mRNA using cationic lipid/DSPC/cholesterol/DMG-PEG2000 (49:10:39.5:1.5 in molar percentage).
The particle size and polydispersity index (PDI) were determined by dynamic light scattering using Malvern laser particle size analyzer.
10 μL of the liposome solution was weighed, diluted to 1 mL with RNase-free deionized water, and added to the sample pool. Each sample was measured in triplicate. The measurement conditions were: 90° scattering angle, and 25° C.

293T cells [2] = test: Fluorescent detection of Fluc-mRNA (cell transfection efficiency of LNP formulations); assay type: cell-based; settings: for Relative light unit (RLU): LNP formulation containing 0.3 μg Fluc-mRNA, 96-well plate, 24 hours; for Multiples (YK-101): RLU of YK-101 / RLU of named substance; for Multiples (YK-107): RLU of YK-107 / RLU of named substance; for Multiples (YK-108): RLU of YK-108 / RLU of named substance; for Ratio relative to SM-102: RLU of named substance / RLU of SM-102
Outline: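 293T cells seeded at 10,000 per well, cultured overnight, then given LNP carrying 0.3 μg Fluc-mRNA (cationic:neutral:structured:PEG-lipid 49:10:39.5:1.5 molar). Incubated 24 h. Luciferase signal read with kit reagent on an IVIS imaging system.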

293T cells [3] = test: Cell survival rate determination (CCK-8); assay type: cell-based; settings: for Cell survival rate (%): LNP formulation containing 1.5 μg Fluc-mRNA, 24 hours, CCK-8, absorbance at 450 nm; for cell survival rate lower than that of YK-101: cell survival rate of YK-101 minus that of named substance; for cell survival rate lower than that of YK-107: cell survival rate of YK-107 minus that of named substance; for cell survival rate lower than that of YK-108: cell survival rate of YK-108 minus that of named substance
Outline: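 293T cells were seeded overnight at 10,000 cells/well in 96-well plates, then exposed for 24 h to LNP containing 1.5 μg Fluc-mRNA (cationic:neutral:structural:polymer-conjugated lipid, 49:10:39.5:1.5 molar) or to Lipofectamine 3000. Viability was read by CCK-8, 1 h incubation, absorbance 450 nm.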

BALB/C mice = test: In vivo imaging of Fluc-mRNA expression in mice delivered by LNP formulations; settings: for average radiation intensity, 6 h / average radiation intensity, 24 h / average radiation intensity, 48 h / average radiation intensity, 7 d: LNP containing 10 pg Fluc-mRNA, intramuscular, female BALB/C mice
Outline: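 Female BALB/C mice (4-6 weeks, 17-19 g) received LNP carrying […] Fluc-mRNA intramuscularly. Substrate was given intraperitoneally at 6 h, 24 h, 48 h and 7 d, and average radiance was imaged by IVIS 5 min later.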

[4] = highest multiple, time point not stated

Structure (SMILES)	PDI(%) [1]	Particle size (nm) [1]	Relative light unit (RLU) (293T cells [2])	Ratio relative to SM-102 (293T cells [2])	Cell survival rate (%) (293T cells [3])	cell survival rate lower than that of YK-101 (293T cells [3])	cell survival rate lower than that of YK-107 (293T cells [3])	cell survival rate lower than that of YK-108 (293T cells [3])	average radiation intensity of YK-101, times that of named substance (BALB/C mice; 6 h)	average radiation intensity of YK-107, times that of named substance (BALB/C mice; 6 h)	average radiation intensity of YK-108, times that of named substance (BALB/C mice; 6 h)	average radiation intensity of YK-101, times that of named substance (BALB/C mice; 24 h)	average radiation intensity of YK-107, times that of named substance (BALB/C mice; 24 h)	average radiation intensity of YK-108, times that of named substance (BALB/C mice; 24 h)	average radiation intensity of YK-101, times that of named substance (BALB/C mice; 48 h)	average radiation intensity of YK-107, times that of named substance (BALB/C mice; 48 h)	average radiation intensity of YK-108, times that of named substance (BALB/C mice; 48 h)	average radiation intensity of YK-101, times that of named substance (BALB/C mice; 7 d)	average radiation intensity of YK-107, times that of named substance (BALB/C mice; 7 d)	average radiation intensity of YK-108, times that of named substance (BALB/C mice; 7 d)	further results
CCCCCCC(CCCCCC)CCOC(=O)CCCCCCCN(CCO)CCCCCCCC(=O)OCCC(CCCCCC)CCCCCC [Compound 23, bis(3-hexylnonyl)-8, 8′-((2-hydroxyethyl)azadialkyl)dioctanoate, reference compound]	7.7%	140 nm	1290824 RLU	0.84	70.91%	19.21%	19.54%	18.95%	2.5 times	2.7 times	3.4 times	9.4 times	11.6 times	12.5 times	5.6 times	6.8 times	7.0 times	2.1 times	2.3 times	2.4 times	Multiples (YK-101) (293T cells [2]): 15.75; Multiples (YK-107) (293T cells [2]): 17.32; Multiples (YK-108) (293T cells [2]): 19.10; average radiation intensity, 6 h (BALB/C mice; 6 h): 599850; average radiation intensity, 24 h (BALB/C mice; 24 h): 112670; average radiation intensity, 48 h (BALB/C mice; 48 h): 33060; average radiation intensity, 7 d (BALB/C mice; 7 d): 5863
CCCCCCCCCCCCC(O)CN(C)CCCCCC(=O)OCC(CCCCCC)CCCCCCCC (centres unmarked) [HHMA, reference compound]	12.2%	138 nm	2047757 RLU	1.33	67.77%	22.35%	22.68%	22.09%	2.3 times	2.5 times	3.2 times	9.1 times	11.3 times	12.2 times	6.0 times	7.3 times	7.5 times	2.3 times	2.5 times	2.7 times	Multiples (YK-101) (293T cells [2]): 9.93; Multiples (YK-107) (293T cells [2]): 10.92; Multiples (YK-108) (293T cells [2]): 12.04; average radiation intensity, 6 h (BALB/C mice; 6 h): 639280; average radiation intensity, 24 h (BALB/C mice; 24 h): 115530; average radiation intensity, 7 d (BALB/C mice; 7 d): 5235
CCCCCCCCC(CCCCCC)C(=O)OCCCCCCN(CCCCO)CCCCCCOC(=O)C(CCCCCC)CCCCCCCC (centres unmarked) [ALC-0315, reference compound]	15.0%	209 nm	2056890 RLU	1.34	51.02%	39.10%	39.43%	38.84%	1.8 times	1.9 times	2.4 times	5.9 times	7.2 times	7.8 times	4.8 times	5.8 times	5.9 times	1.8 times	2.0 times	2.1 times	Multiples (YK-101) (293T cells [2]): 9.89; Multiples (YK-107) (293T cells [2]): 10.87; Multiples (YK-108) (293T cells [2]): 11.99; average radiation intensity, 6 h (BALB/C mice; 6 h): 830590; average radiation intensity, 24 h (BALB/C mice; 24 h): 179680; average radiation intensity, 48 h (BALB/C mice; 48 h): 39015; average radiation intensity, 7 d (BALB/C mice; 7 d): 6643
CCCCCCCCCC(=O)OCCCCN(CCO)CCCCCC(=O)OCCC(CCCCCC)CCCCCC [YK-109]	28.2%	205 nm	717431 RLU	0.47	69.45%	20.67%	21.00%	20.41%	2.4 times	2.6 times	3.2 times	11.2 times	13.8 times	14.8 times	10.1 times	12.2 times	12.5 times	2.5 times	2.7 times	2.9 times	difference from SM-102 in Fluc-mRNA fluorescence (GraphPad Prism analysis) (293T cells [2]; statistical comparison with SM-102): no significant difference; average radiation intensity, 6 h (BALB/C mice; 6 h): 625040; average radiation intensity, 24 h (BALB/C mice; 24 h): 94720; average radiation intensity, 48 h (BALB/C mice; 48 h): 18496; average radiation intensity, 7 d (BALB/C mice; 7 d): 4948; expression amount of mRNA in mice of YK-101, times that of named substance (BALB/C mice; [4]): up to 11 times; expression amount of mRNA in mice of YK-107, times that of named substance (BALB/C mice; [4]): ≤ 13 times
